Where two headings read alike, the source gives them in different places.
System: TNFα secretion in RAW 264.7 macrophages
Assay: TNFα release assay in RAW 264.7 macrophages stimulated with LPS
Type: cell-based, mouse
Description: The purpose of this assay is to measure the ability of small molecules to inhibit the secretion of TNFα in cultured macrophages stimulated with lipopolysaccharide (LPS). Treatment of macrophages with LPS activates inflammatory cytokine pathways primarily through the TLR4-NFκB signaling axis. […] Dexamethasone, a potent agonist of the glucocorticoid receptor is used a positive control for inhibition of TNFα release. Day 1: Seed RAW 264.7 macrophages into 96 well culture plates. Remove culture media from RAW 264.7 cell growing in a […] tissue culture flask (cells should be at […] confluence) and add 10 ml of warmed complete growth media (DMEM+10% FBS+1× pen/step). The cells are scraped into suspension using a sterile plate scraper and homogenized by pipetting up and down with a 10 ml serological pipette. The cell concentration is determined using a clinical hematoctyometer. Cells are then diluted to 150,000 cells per ml into growth media. The diluted cells are then transferred to a sterile reagent reservoir and 100 μl of cell suspension is pipetted into each well of a 96 well culture plate using a multichannel pipette (15,000 cells/well). Plates are then incubated at 37° C. under normal tissue culture growth conditions (37° C., humidified CO2 chamber). Day 2: The test compound sample plate is prepared. Test compounds are prepared in growth media. Compounds are delivered to media from 1000× stocks in 100% DMSO (e.g. for a 10 μM final concentration of test compound, deliver 2 μl of 10 mM test compound to 2 ml of media). At least 150 μl of 1× compound in media is added to 96 well sample plate. Note: the perimeter wells of the 96 well plate are not used to avoid edge effects. Twelve sample wells are prepared with media plus 0.1% DMSO (these samples will serve as the vehicle controls; LPS-stimulated and non-stimulated. 10 μM dexamethasone is used as a positive control). Culture plates are then returned to the growth incubator for 2 hours. Cells are stimulated afterwards by adding 25 μl of 50 ng/ml LPS is added to every well (except the 6 unstimulated vehicle control wells: final concentration of 10 ng/ml LPS. Plates are returned to growth incubator for 3 hours. Afterwards, 100 μl of media supernatant is removed and transferred to a 96 well v-bottom sample plate. The media supernatant plate is centrifuged for 5 minutes at 1000 rpm in a swing-bucket centrifuge, pelleting any cellular debris that may remain in supernatant. 80 μl of supernatant is removed from sample plate and transferred to a fresh v-bottom 96 well plate. Cell viability is measured using Celltiter-glo kit. By measuring cell viability, a given compound's effects on TNFα secretion can determine whether effects are due to cytotoxicity or to true inhibition of inflammatory signaling. Add 100 μl of Celltiter-glo reagent to each well of the cell culture plate and afterwards measure the luminescence signal (CPS) of the plate using the Victor 5 plate reader (0.3 second read; 60 second plate shaking prior to read). Cell viability of a given compound at a given concentration is computed as follows: Cell viability=CPS Sample/(Average CPS unstimulated controls)*100 […] Follow Invitrogen/Biosource manufacture's protocol for the mouse TNFα ELISA. Chromogen development is typically conducted for 20-30 minutes as described in the manufacturer's protocol. After addition of stop solution, measure OD 450 nm using the Victor 5 plate reader (0.1 second/well scan). Determine the TNFα secretion percent of control. The following formula is used to determine the TNFα secretion percent of control: [formula] For each test compound, TNFα secretion percent of control can be plotted as a function of compound concentration using a four parameter dose-response curve fit equation (XLFIT Model #205): fit=([…]=([…]=(y-fit) […] A sample graph showing the data obtained by using one of the Compounds of the Invention in the procedure described above in Example 6 is shown in FIG. 2.

[1] = RAW264.7, RAW 264.7 macrophages, 10 ng/ml LPS, mouse TNFα ELISA, read-out: TNFα Secretion, IC50 μM

Row | SMILES | IC50 [1] | also measured
1 | Nc1ccc(O)c(C(=O)O)c1 [Compound 5-ASA, 5-aminosalicylic acid, reference compound] | > 100 µM | 
2 | CC/C=C\C/C=C\C/C=C\C/C=C\C/C=C\C/C=C\CCC(=O)NCCNC(=O)c1ccccc1O [Compound 31, N-(2-(4Z,7Z,10Z,13Z,16Z,19Z)-docosa-4,7,10,13,16,19-hexaenamidoethyl)-2-hydroxybenzamide] | 15 µM | 
3 | CC/C=C\C/C=C\C/C=C\C/C=C\C/C=C\C/C=C\CCC(=O)NC(CC(C)C)C(=O)Oc1ccccc1C(=O)OCC (stereo not shown) [Compound I-1, ethyl 2-(2-(4Z,7Z,10Z,13Z,16Z,19Z)-docosa-4,7,10,13,16,19-hexaenamido-4-methylpentanoyloxy)benzoate] |  | inhibition at 6.2 µM (Mus musculus, RAW264.7, read-out: TNFα Secretion, % Inhibition): 24.4%
4 | CC/C=C\C/C=C\C/C=C\C/C=C\C/C=C\C/C=C\CCC(=O)O [DHA, all-cis-4,7,10,13,16,19-docosahexaenoic acid, reference compound] | > 100 µM | 
5 | CC/C=C\C/C=C\C/C=C\C/C=C\C/C=C\C/C=C\CCC(=O)Nc1ccc(O)c(C(=O)O)c1 [III-1, 5-(4Z,7Z,10Z,13Z,16Z,19Z)-docosa-4,7,10,13,16,19-hexaenamido-2-hydroxybenzoic acid] |  | IC50 (Mus musculus, RAW264.7, read-out: TNFα Secretion, IC50 μM): 146 µM
6 | CC/C=C\C/C=C\C/C=C\C/C=C\C/C=C\C/C=C\CCC(=O)NC(CC(C)C)C(=O)Nc1ccc(O)c(C(=O)O)c1 (stereo not shown) [III-6, 5-(2-(4Z,7Z,10Z,13Z,16Z,19Z)-docosa-4,7,10,13,16,19-hexaenamido-4-methylpentanamido)-2-hydroxybenzoic acid] | 65.3 µM | 
7 | CC/C=C\C/C=C\C/C=C\C/C=C\C/C=C\C/C=C\CCC(=O)Oc1ccccc1C(=O)O [Ia-1, 2-((4Z,7Z,10Z,13Z,16Z,19Z)-docosa-4,7,10,13,16,19-hexaenoyloxy)benzoic acid] | 69.2 µM | 

Source: patent US20180325923A1, “FATTY ACID ACETYLATED SALICYLATES AND THEIR USES” (Catabasis Pharmaceuticals, Inc., priority 2008, published 2018)
